In publication PMC11395397, “Isolation and Characterization of Novel Pueroside B Isomers and Other Bioactive Compounds from Pueraria lobata Roots: Structure Elucidation, α-Glucosidase, and α-Amylase Inhibition Studies” (International Journal of Molecular Sciences, 2024):
Where two headings read alike, the source gives them in different places.

Tests used:
[1] = biological target: T1, α-amylase (from porcine pancreas) (Sus scrofa, UniProt P00690); assay: α-amylase inhibition assay (DNS colorimetric, 540 nm); assay type: biochemical; settings: for IC50: means ± SD, n = 3, porcine pancreas enzyme, DNS method, 37 °C; for α-amylase inhibitory activity (in words): tested up to 100.00 μM
T1 construct: purchased Shanghai Yuanye Bio-Technology Co., Ltd. (Shanghai, China); host or cells: porcine pancreas
T1 sequence (P00690 16-511): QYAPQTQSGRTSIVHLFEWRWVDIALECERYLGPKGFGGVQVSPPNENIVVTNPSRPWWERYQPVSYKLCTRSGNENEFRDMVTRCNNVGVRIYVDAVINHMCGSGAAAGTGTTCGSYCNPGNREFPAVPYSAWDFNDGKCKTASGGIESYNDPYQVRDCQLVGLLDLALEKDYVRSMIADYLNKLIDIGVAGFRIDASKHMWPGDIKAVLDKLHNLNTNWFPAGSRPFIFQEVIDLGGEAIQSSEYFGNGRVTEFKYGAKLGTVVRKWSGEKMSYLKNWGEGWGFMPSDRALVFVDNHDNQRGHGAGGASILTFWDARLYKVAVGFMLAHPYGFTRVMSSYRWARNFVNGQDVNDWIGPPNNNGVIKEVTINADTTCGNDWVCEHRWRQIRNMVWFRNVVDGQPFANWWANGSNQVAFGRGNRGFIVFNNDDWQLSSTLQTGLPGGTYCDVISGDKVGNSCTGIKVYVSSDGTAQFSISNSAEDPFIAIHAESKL
Method: (§1) ESI-HR-MS was recorded on an Orbitrap Exploris 120 quadrupole electrostatic field orbital well high-resolution mass spectrometer for UPLC-Q-Orbitrap HRMS (Waltham, MA, USA) equipped with a Hypersil GOLD C18 column (2.1 × 100 mm, 1.9 μm, ThermoFisher, Waltham, MA, USA). Optical rotations were measured on an MCP 500 polarimeter (Anton Paar, Graz, Austria). CD spectra were obtained using a Chirascan circular dichroism spectrometer (Applied PhotoPhysics, Leatherhead, Surrey, UK). UV spectra were measured with a UV-3600 Plus spectrophotometer (Shimadzu, Kyoto, Japan), and IR spectra were obtained using an IR Affinity-1S spectrophotometer (Shimadzu, Kyoto, Japan). Preparative and semipreparative HPLC were performed on a Shimadzu LC-16 system using a reverse-phase C18 column (20 × 250 mm, 5 μm, Shimadzu, Kyoto, Japan). NMR experiments were conducted on a Bruker AVANCE-600 instrument with tetramethylsilane (TMS) as an internal standard, operating at 600 MHz for ^1H NMR and 150 MHz for ^13C NMR (Ettlingen, Germany). Enzyme inhibition activity was measured using an Agilent Synergy H1 microplate reader (Agilent Technologies, Santa Clara, CA, USA). Macroporous resin AB-8 was obtained from the Chemical Plant of Nankai University (Tianjin, China). […] Analytical-grade reagents were procured from Da Mao Chemical Reagent Co., Ltd. (Tianjin, China), chromatographic-grade reagents from Honeywell Trade (Shanghai) Co., Ltd. (Shanghai, China), and distilled water from Watsons (Hong Kong, China).
Test sample solutions at various concentrations (5.00, 10.00, 20.00, 40.00, 60.00, 80.00, and 100.00 μM) were preincubated with α-amylase (2 U/mL) at 37 °C for 10 min. The reaction was terminated by adding 200 μL of DNS reagent and boiling the mixture at 100 °C for 5 min to inactivate the enzyme. After cooling to room temperature, 1 mL of distilled water was added for dilution, and absorbance was measured at 540 nm.

[2] = biological target: T2, α-Glucosidase (from yeast, EC 3.2.1.20) (Saccharomyces cerevisiae, UniProt P53341); assay: biochemical; assay type: biochemical; settings: for IC50: means ± SD, n = 3, yeast enzyme, p-NPG substrate, 37 °C; for α-glucosidase inhibitory activity (in words): tested up to 100.00 μM
T2 construct: purchased Shanghai Yuanye Bio-Technology Co., Ltd. (Shanghai, China)
Method: as §1
Then, 400 μL of p-NPG solution (5 mM) was added to initiate the enzymatic reaction, which continued to incubate at 37 °C for 20 min. The reaction was terminated by placing the mixture in a −20 °C freezer for 10 min. Absorbance was measured at 405 nm using a microplate reader.

T2 sequence (P53341 whole entry): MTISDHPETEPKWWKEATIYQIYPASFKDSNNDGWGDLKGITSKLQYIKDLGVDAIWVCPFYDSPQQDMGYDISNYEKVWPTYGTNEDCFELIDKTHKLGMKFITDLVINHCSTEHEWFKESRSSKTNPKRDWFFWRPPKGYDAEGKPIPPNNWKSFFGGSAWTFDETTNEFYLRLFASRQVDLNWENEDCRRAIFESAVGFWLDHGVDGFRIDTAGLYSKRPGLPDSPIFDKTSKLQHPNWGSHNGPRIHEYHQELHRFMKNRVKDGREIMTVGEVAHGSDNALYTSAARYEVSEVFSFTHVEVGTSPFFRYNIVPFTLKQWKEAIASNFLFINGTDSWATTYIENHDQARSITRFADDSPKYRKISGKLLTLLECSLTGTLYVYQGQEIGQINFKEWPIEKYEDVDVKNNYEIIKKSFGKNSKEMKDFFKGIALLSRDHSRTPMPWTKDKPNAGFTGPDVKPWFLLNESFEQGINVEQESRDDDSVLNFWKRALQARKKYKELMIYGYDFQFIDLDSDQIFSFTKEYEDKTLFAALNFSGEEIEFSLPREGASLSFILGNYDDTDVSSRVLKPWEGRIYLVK

Row | Structure (SMILES) | IC50 ([1]; read-out: IC50 α-Amylase) [µM] | α-amylase inhibitory activity (in words) [1] | IC50 ([2]; read-out: IC50 α-Glucosidase) [µM] | α-glucosidase inhibitory activity (in words) [2] | IC50 ([2]; IC50 α-Glucosidase) [µM] | IC50 ([1]; IC50 α-Amylase) [µM]
1 | COc1ccc(C2=CC(=O)OC2Cc2ccc(O)cc2)c(OC2OC(CO)C(O)C(O)C2O)c1 (single isomer, unassigned; (-)) [Compound 3, (−)-puerol B-2-O-glucopyranoside] | 83.6 ± 1.15 | significant inhibitory activity | 72.9 ± 0.79 | significant inhibitory activity |  | 
2 | COc1ccc(C2=CC(=O)OC2Cc2ccc(OC3OC(CO)C(O)C(O)C3O)cc2)c(OC2OC(CO)C(O)C(O)C2O)c1 (stereo not drawn) [Compound 1, 4R-pueroside B] | 81.7 ± 1.72 | significant inhibitory activity | 61.3 ± 1.15 | significant inhibitory activity |  | 
3 | COc1ccc(C2=CC(=O)OC2Cc2ccc(OC3OC(CO)C(O)C(O)C3O)cc2)c(OC2OC(CO)C(O)C(O)C2O)c1 (stereo not drawn) [Compound 2, 4S-pueroside B] | > 100 | did not show any activity | > 100 | did not show any activity |  | 
4 | COc1cc2c(cc1OC)[C@@H](Cc1ccc(Oc3cc(C[C@@H]4c5cc(OC)c(OC)cc5CCN4C)ccc3O)cc1)N(C)CC2 [Compound 4, dauricine] | 60.9 ± 1.68 |  |  |  | 44.2 ± 1.03 | 
5 | COc1cc2c(cc1O)[C@@H](Cc1ccc(O)c(Oc3ccc(C[C@@H]4c5cc(OC)c(OC)cc5CCN4C)cc3)c1)N(C)CC2 [Compound 5, daurisoline] | 66.4 ± 2.31 |  |  |  | 45.2 ± 1.27 | 
6 | COc1ccc2c(c[n+](C)c3c4cc5c(cc4ccc23)OCO5)c1OC [Compound 6, chelerythrine] | 71.4 ± 1.24 |  | 52.3 ± 1.59 |  |  | 
7 | COc1cc2c(cc1O)[C@@H]1Cc3ccc(O)c(OC)c3CN1CC2 [Compound 7, stepholidine] | 78.2 ± 1.98 |  | 58.8 ± 1.55 |  |  | 
8 | COC1=CC(=O)[C@@]2([C@@H]1O)[C@@H](Cl)C[C@@]13C(OC)=C(OC)C(=O)C[C@@]21CCN3C [Compound 8, acutumine] | 80.7 ± 1.85 |  | 66.5 ± 2.03 |  |  | 
9 | COC1=C[C@@H]2[C@@H]3Cc4ccc(OC)c(O)c4[C@]2(CCN3C)CC1=O [Compound 9, sinomenine] |  |  |  |  | 57.6 ± 0.88 | 66.7 ± 1.45
10 | COc1cc(O)ccc1C(O)C(=O)Cc1ccc(O)cc1 (stereo not drawn) [Compound 10] | 63.6 ± 1.37 |  | 43.6 ± 0.76 |  |  | 
11 | CC1(C)C=Cc2cc3c(cc2O1)OC1C2(O)C=CC(=O)C=C2OCC31O (stereo not drawn) [Compound 11, hydroxytuberosone] | 38.9 ± 1.08 |  | 32.2 ± 0.71 |  |  | 
12 | CC1(C)CC(=O)C2(C)CCC3(C)C(=CCC4C5(C)CCC(=O)C(C)(CO)C5CCC43C)C2C1 (stereo not drawn) [Compound 12, melilotigenin B] | 30.9 ± 0.57 |  | 23.3 ± 0.38 |  |  | 
